# Source: US10695337B2, “Piperidin-4-yl azetidine derivatives as JAK1 inhibitors” (Incyte Corporation, priority 2010, dated 2020)
# Target: human JAK1 (a.a. 837-1142)
# Assay: In vitro JAK kinase assay (HTRF, phosphorylation of a biotinylated peptide), JAK1
# Format: biochemical
# Details: measured at 1 mM ATP; JAK2 IC50 / JAK1 IC50
# Procedure: Compounds herein were tested for inhibitory activity of JAK targets according to the following in vitro assay described in Park et al., Analytical Biochemistry 1999, 269, 94-104. The catalytic domains of human JAK1 (a.a. 837-1142), Jak2 (a.a. 828-1132) and Jak3 (a.a. 781-1124) with an N-terminal His tag were expressed using baculovirus in insect cells and purified. The catalytic activity of JAK1, JAK2 or JAK3 was assayed by measuring the phosphorylation of a biotinylated peptide. The phosphorylated peptide was detected by homogenous time resolved fluorescence (HTRF). […] Reactions were carried out at room temperature for 1 hr and then stopped with 20 μL 45 mM EDTA, 300 nM SA-APC, 6 nM Eu-Py20 in assay buffer (Perkin Elmer, Boston, Mass.). Binding to the Europium labeled antibody took place for 40 minutes and HTRF signal was measured on a Fusion plate reader (Perkin Elmer, Boston, Mass.).
row,IC50 Ratio JAK2/JAK1,Compound
1,1.8,"CC1CC(N2CC(CC#N)(n3cc(-c4ncnc5[nH]ccc45)cn3)C2)CCN1Cc1c(F)cccc1Cl (single isomer, unassigned) [Example 244, {1-[1-(2-chloro-6-fluorobenzyl)-2-methylpiperidin-4-yl]-3-[4-(7H-pyrrolo[2,3-d]pyrimidin-4-yl)-1H-pyrazol-1-yl]azetidin-3-yl}acetonitrile]"
2,11.0,"N#CCC1(n2cc(-c3ncnc4[nH]ccc34)cn2)CN(C2CCN(C(=O)c3cc(F)cc(F)c3)CC2)C1 [Example 3, {1-[1-(3,5-difluorobenzoyl)piperidin-4-yl]-3-[4-(7H-pyrrolo[2,3-d]pyrimidin-4-yl)-1H-pyrazol-1-yl]azetidin-3-yl}acetonitrile]"
3,12.0,"COc1ccc(C(=O)N2CCC(N3CC(CC#N)(n4cc(-c5ncnc6[nH]ccc56)cn4)C3)CC2)cc1F [Example 5, {1-[1-(3-fluoro-4-methoxybenzoyl)piperidin-4-yl]-3-[4-(7H-pyrrolo[2,3-d]pyrimidin-4-yl)-1H-pyrazol-1-yl]azetidin-3-yl}acetonitrile]"
4,11.0,"N#CCC1(n2cc(-c3ncnc4[nH]ccc34)cn2)CN(C2CCN(C(=O)C3CCCCC3)CC2)C1 [Example 8, {1-[1-(cyclohexylcarbonyl)piperidin-4-yl]-3-[4-(7H-pyrrolo[2,3-d]pyrimidin-4-yl)-1H-pyrazol-1-yl]azetidin-3-yl}acetonitrile]"
5,3.2,"N#CCC1(n2cc(-c3ncnc4[nH]ccc34)cn2)CN(C2CCN(C(=O)c3ccccc3)CC2)C1 [Example 9, {1-(1-benzoylpiperidin-4-yl)-3-[4-(7H-pyrrolo[2,3-d]pyrimidin-4-yl)-1H-pyrazol-1-yl]azetidin-3-yl}acetonitrile]"
6,4.4,"N#CCC1(n2cc(-c3ncnc4[nH]ccc34)cn2)CN(C2CCN(C(=O)c3ccccc3C#N)CC2)C1 [Example 10, 2-[(4-{3-(cyanomethyl)-3-[4-(7H-pyrrolo[2,3-d]pyrimidin-4-yl)-1H-pyrazol-1-yl]azetidin-1-yl}piperidin-1-yl)carbonyl]benzonitrile]"
7,7.2,"N#CCC1(n2cc(-c3ncnc4[nH]ccc34)cn2)CN(C2CCN(C(=O)c3cccc(C#N)c3)CC2)C1 [Example 11, 3-[(4-{3-(cyanomethyl)-3-[4-(7H-pyrrolo[2,3-d]pyrimidin-4-yl)-1H-pyrazol-1-yl]azetidin-1-yl}piperidin-1-yl)carbonyl]benzonitrile]"
8,5.2,"N#CCC1(n2cc(-c3ncnc4[nH]ccc34)cn2)CN(C2CCN(C(=O)c3ccc(C#N)cc3)CC2)C1 [Example 12, 4-[(4-{3-(cyanomethyl)-3-[4-(7H-pyrrolo[2,3-d]pyrimidin-4-yl)-1H-pyrazol-1-yl]azetidin-1-yl}piperidin-1-yl)carbonyl]benzonitrile]"
9,5.3,"N#CCC1(n2cc(-c3ncnc4[nH]ccc34)cn2)CN(C2CCN(C(=O)c3cccc(Cl)n3)CC2)C1 [Example 13, {1-{1-[(6-chloropyridin-2-yl)carbonyl]piperidin-4-yl}-3-[4-(7H-pyrrolo[2,3-d]pyrimidin-4-yl)-1H-pyrazol-1-yl]azetidin-3-yl}acetonitrile]"
10,3.2,"N#CCC1(n2cc(-c3ncnc4[nH]ccc34)cn2)CN(C2CCN(C(=O)c3cnccn3)CC2)C1 [Example 14, {1-[1-(pyrazin-2-lcarbonyl)piperidin-4-yl]-3-[4-(7H-pyrrolo[2,3-d]pyrimidin-4-yl)-1H-pyrazol-1-yl]azetidin-3-l}acetonitrile]"
11,5.3,"N#CCC1(n2cc(-c3ncnc4[nH]ccc34)cn2)CN(C2CCN(C(=O)c3ccsc3)CC2)C1 [Example 15, {3-[4-(7H-pyrrolo[2,3-d]pyrimidin-4-yl)-1H-pyrazol-1-yl]-1-[1-(3-thienylcarbonyl)piperidin-4-yl]azetidin-3-yl}acetonitrile]"
12,2.5,"N#CCC1(n2cc(-c3ncnc4[nH]ccc34)cn2)CN(C2CCN(C(=O)c3ncco3)CC2)C1 [Example 16, {1-[1-(1,3-oxazol-2-ylcarbonyl)piperidin-4-yl]-3-[4-(7H-pyrrolo[2,3-d]pyrimidin-4-yl)-1H-pyrazol-1-yl]azetidin-3-yl}acetonitrile]"
13,4.2,"N#CCC1(n2cc(-c3ncnc4[nH]ccc34)cn2)CN(C2CCN(C(=O)c3cccc(Br)c3)CC2)C1 [Example 20, {1-[1-(3-bromobenzoyl)piperidin-4-yl]-3-[4-(7H-pyrrolo[2,3-d]pyrimidin-4-yl)-1H-pyrazol-1-yl]azetidin-3-yl}acetonitrile]"
14,3.2,"N#CCC1(n2cc(-c3ncnc4[nH]ccc34)cn2)CN(C2CCN(C(=O)c3cccc(OC(F)(F)F)c3)CC2)C1 [Example 21, (3-[4-(7H-pyrrolo[2,3-d]pyrimidin-4-yl)-1H-pyrazol-1-yl]-1-{1-[3-(trifluoromethoxy)benzoyl]piperidin-4-yl}azetidin-3-yl)acetonitrile]"
15,3.2,"N#CCC1(n2cc(-c3ncnc4[nH]ccc34)cn2)CN(C2CCN(C(=O)c3cccc(C(F)(F)F)c3)CC2)C1 [Example 22, (3-[4-(7H-pyrrolo[2,3-d]pyrimidin-4-yl)-1H-pyrazol-1-yl]-1-{1-[3-(trifluoromethyl)benzoyl]piperidin-4-yl}azetidin-3-yl)acetonitrile]"
16,6.7,"N#CCC1(n2cc(-c3ncnc4[nH]ccc34)cn2)CN(C2CCN(C(=O)c3cc(F)cc(C(F)(F)F)c3)CC2)C1 [Example 23, {1-{1-[3-fluoro-5-(trifluoromethyl)benzoyl]piperidin-4-yl}-3-[4-(7H-pyrrolo[2,3-d]pyrimidin-4-yl)-1H-pyrazol-1-yl]azetidin-3-yl}acetonitrile]"
17,6.6,"N#CCC1(n2cc(-c3ncnc4[nH]ccc34)cn2)CN(C2CCN(C(=O)c3cc(Cl)cc(Cl)c3)CC2)C1 [Example 24, {1-[1-(3,5-dichlorobenzoyl)piperidin-4-yl]-3-[4-(7H-pyrrolo[2,3-d]pyrimidin-4-yl)-1H-pyrazol-1-yl]azetidin-3-yl}acetonitrile]"
18,5.8,"N#CCC1(n2cc(-c3ncnc4[nH]ccc34)cn2)CN(C2CCN(C(=O)c3cccc(F)c3)CC2)C1 [Example 25, {1-[1-(3-fluorobenzoyl)piperidin-4-yl]-3-[4-(7H-pyrrolo[2,3-d]pyrimidin-4-yl)-1H-pyrazol-1-yl]azetidin-3-yl}acetonitrile]"
19,3.3,"COc1cc(C(=O)N2CCC(N3CC(CC#N)(n4cc(-c5ncnc6[nH]ccc56)cn4)C3)CC2)ccc1F [Example 26, {1-[1-(4-fluoro-3-methoxybenzoyl)piperidin-4-yl]-3-[4-(7H-pyrrolo[2,3-d]pyrimidin-4-yl)-1H-pyrazol-1-yl]azetidin-3-yl}acetonitrile]"
20,5.1,"COc1ccc(F)c(C(=O)N2CCC(N3CC(CC#N)(n4cc(-c5ncnc6[nH]ccc56)cn4)C3)CC2)c1 [Example 27, {1-[1-(2-fluoro-5-methoxybenzoyl)piperidin-4-yl]-3-[4-(7H-pyrrolo[2,3-d]pyrimidin-4-yl)-1H-pyrazol-1-yl]azetidin-3-yl}acetonitrile]"
21,8.5,"N#CCC1(n2cc(-c3ncnc4[nH]ccc34)cn2)CN(C2CCN(C(=O)c3cc(F)cc(Cl)c3)CC2)C1 [Example 28, {1-[1-(3-chloro-5-fluorobenzoyl)piperidin-4-yl]-3-[4-(7H-pyrrolo[2,3-d]pyrimidin-4-yl)-1H-pyrazol-1-yl]azetidin-3-yl}acetonitrile]"
